According to patent US5498618A, “4-amino-N-(4-methyl-4-piperidinyl)-2-methoxybenzamides for treating smooth muscle contraction disorders” (Janssen Pharmaceutica N.V., priority 1993, dated 1996):

Columns and labels:
5HT2 serotonin receptor = molecular target: T1, 5HT2 serotonin receptor (Rattus norvegicus, UniProt P14842); experiment: 5HT2 receptor binding, [3H]ketanserin displacement; details: read-out: IC50 (inhibition of [3H]-ligand binding) (converted)
T1 construct: Cell membrane fractions, prepared from tissue homogenates or cells; from tissue
T1 sequence (P14842 whole entry): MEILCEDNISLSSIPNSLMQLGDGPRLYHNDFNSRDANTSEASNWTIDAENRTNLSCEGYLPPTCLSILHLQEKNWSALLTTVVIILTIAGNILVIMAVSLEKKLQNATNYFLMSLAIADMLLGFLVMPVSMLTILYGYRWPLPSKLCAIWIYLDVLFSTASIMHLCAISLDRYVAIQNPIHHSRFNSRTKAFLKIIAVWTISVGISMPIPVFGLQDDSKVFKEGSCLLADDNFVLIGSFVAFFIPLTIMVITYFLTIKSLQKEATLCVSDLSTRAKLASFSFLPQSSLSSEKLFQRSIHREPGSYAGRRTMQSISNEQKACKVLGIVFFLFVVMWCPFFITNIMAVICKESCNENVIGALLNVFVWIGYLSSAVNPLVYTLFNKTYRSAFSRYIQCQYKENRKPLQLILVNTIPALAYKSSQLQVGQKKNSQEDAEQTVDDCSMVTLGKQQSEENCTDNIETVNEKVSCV
Method: (§1) Cell membrane fractions, prepared from tissue homogenates or cells, were incubated with a radioactive [^3 H]-labelled substance (described hereinafter as the [^3 H]-ligand) known to bind specifically to a particular receptor, thus labeling this receptor. The [^3 H]-ligand used for each receptor site is mentioned in Table 1, as are the references wherein the experimental conditions of these tests are described.
(§2) After the incubation, the labelled membranes were harvested on glass fibre filters and rinsed twice with 5 ml of a cold buffer solution to remove non-bound [^3 H]-ligands. Subsequently the glass fibre filters, with the harvested membranes, were placed in plastic mini-vials and 2.0 ml of Ultima Gold™ scintillation cocktail was added. Vials were vigorously shaken and kept at 4° C. for 24 h. Thereafter radioactivity was counted in a liquid scintillation spectrometer. Said radioactivity is proportional to the membrane labelling by the [^3 H]-ligand.
(§3) Specific membrane labelling by the [^3 H]-ligand was distinguished from the non-specific membrane labelling by selectively inhibiting the labelling of the receptor site by another substance (unlabelled) known to compete with the [^3 H]-ligand for binding to said receptor site. The remaining non-specific labelling was substracted from all assays concerning said receptor site.
(§4) During the incubation the test compounds were able to compete with the [^3 H]-ligand for binding with the receptor. Subsequently the membranes were harvested and the radioactivity was measured as described above.
(§5) A compound having a high binding affinity is capable of displacing the [^3 H]-ligand from binding to the receptor, and consequently the radioactivity of the harvested membranes will be diminished. […] The values presented in table 1 are IC50 -values, i.e. the molar concentrations at which the test compound was able to inhibit 50% of the [^3 H]-ligand-binding
(§6) In the table "5HT2, 5HT1A, 5HT1B, 5HT1D, 5HT1C, 5HT3 " all refer to different types of serotonin receptor sites; "α2 " refers to the α2 -adrenergic receptor site; "H1 " refers to the histamine-H1 receptor site; and "D2 " refers to the dopamine-D2 -receptor site.

5HT1A serotonin receptor = molecular target: T2, 5HT1A serotonin receptor (Homo sapiens, UniProt P08908); experiment: 5HT1A receptor binding, [3H]8OHDPAT displacement; details: read-out: IC50 (inhibition of [3H]-ligand binding) (converted)
T2 construct: expressed in transfected cells
T2 sequence (P08908 1-422): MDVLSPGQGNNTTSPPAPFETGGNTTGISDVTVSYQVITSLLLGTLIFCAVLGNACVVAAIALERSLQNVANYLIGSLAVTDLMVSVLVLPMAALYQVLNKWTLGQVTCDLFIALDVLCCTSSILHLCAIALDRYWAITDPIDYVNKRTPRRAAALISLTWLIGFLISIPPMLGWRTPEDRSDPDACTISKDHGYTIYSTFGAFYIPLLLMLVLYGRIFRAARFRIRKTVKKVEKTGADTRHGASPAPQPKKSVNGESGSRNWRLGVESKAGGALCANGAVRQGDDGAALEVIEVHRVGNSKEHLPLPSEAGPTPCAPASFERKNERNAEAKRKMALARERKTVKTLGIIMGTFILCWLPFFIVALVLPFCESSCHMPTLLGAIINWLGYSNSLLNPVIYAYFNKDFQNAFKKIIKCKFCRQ
Method: as §1, §2, §3, §4, §5, §6

5HT1B serotonin receptor = molecular target: T3, 5HT1B serotonin receptor (Rattus norvegicus, UniProt P28564); experiment: 5HT1B receptor binding, [3H]serotonin displacement; details: read-out: IC50 (inhibition of [3H]-ligand binding) (converted)
T3 construct: Cell membrane fractions, prepared from tissue homogenates or cells; from tissue
T3 sequence (P28564 whole entry): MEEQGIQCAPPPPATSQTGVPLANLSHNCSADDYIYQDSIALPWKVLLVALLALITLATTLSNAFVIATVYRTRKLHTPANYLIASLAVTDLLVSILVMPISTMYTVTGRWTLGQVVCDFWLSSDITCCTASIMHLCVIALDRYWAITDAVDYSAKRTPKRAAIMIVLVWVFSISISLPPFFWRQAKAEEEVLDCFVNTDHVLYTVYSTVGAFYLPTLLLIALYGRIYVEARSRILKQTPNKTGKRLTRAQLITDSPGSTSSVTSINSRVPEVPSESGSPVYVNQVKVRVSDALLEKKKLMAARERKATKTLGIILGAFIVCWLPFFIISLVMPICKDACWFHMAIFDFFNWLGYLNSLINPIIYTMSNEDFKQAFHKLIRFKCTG
Method: as §1, §2, §3, §4, §5, §6

5HT3 serotonin receptor = molecular target: T4, 5HT3 serotonin receptor (Mus musculus, UniProt P23979); experiment: 5HT3 receptor binding, [3H]GR65630 displacement; details: read-out: IC50 (inhibition of [3H]-ligand binding) (converted)
T4 construct: Cell membrane fractions, prepared from tissue homogenates or cells; endogenous in cells
T4 sequence (P23979 24-489): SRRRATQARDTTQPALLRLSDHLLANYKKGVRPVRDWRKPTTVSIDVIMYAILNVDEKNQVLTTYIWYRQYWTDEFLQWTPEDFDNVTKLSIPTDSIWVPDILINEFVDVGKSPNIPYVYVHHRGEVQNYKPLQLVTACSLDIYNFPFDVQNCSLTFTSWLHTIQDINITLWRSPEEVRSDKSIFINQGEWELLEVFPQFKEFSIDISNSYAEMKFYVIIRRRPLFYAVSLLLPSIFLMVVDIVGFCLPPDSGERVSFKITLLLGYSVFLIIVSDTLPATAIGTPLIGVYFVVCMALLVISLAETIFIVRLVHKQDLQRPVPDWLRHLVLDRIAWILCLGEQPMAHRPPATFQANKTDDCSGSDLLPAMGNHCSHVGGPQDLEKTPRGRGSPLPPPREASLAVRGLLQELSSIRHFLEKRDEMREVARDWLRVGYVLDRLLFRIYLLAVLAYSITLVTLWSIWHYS
Method: as §1, §2, §3, §4, §5, §6
(f) Hoyer & Neijt, Eur. J. Pharmacol., 143, 191, 1987;

histamine-H1 receptor = molecular target: T5, histamine-H1 receptor (Cavia porcellus, UniProt P31389); experiment: histamine-H1 receptor binding, [3H]pyrilamine displacement; details: read-out: IC50 (inhibition of [3H]-ligand binding) (converted)
T5 construct: Cell membrane fractions, prepared from tissue homogenates or cells; from tissue
T5 sequence (P31389 whole entry): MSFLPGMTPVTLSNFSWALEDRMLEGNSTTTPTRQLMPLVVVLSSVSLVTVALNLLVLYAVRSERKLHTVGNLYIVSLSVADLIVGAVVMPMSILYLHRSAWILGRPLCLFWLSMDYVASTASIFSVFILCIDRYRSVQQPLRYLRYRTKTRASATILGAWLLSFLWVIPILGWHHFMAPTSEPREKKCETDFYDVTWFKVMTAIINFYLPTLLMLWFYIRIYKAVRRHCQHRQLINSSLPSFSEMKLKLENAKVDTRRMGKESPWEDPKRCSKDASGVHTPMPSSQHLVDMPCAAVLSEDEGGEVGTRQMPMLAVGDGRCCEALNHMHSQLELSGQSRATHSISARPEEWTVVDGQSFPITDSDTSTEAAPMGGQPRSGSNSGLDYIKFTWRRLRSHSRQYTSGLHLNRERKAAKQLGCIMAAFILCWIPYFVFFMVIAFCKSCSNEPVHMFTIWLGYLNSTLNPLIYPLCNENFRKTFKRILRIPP
Method: as §1, §2, §3, §4, §5, §6
(h) Chang et al., Eur. J. Pharmacol., 48, 463-464, 1978; Laduron et al.,

dopamine-D2 receptor = molecular target: T6, dopamine-D2 receptor (Rattus norvegicus, UniProt P61169); experiment: dopamine-D2 receptor binding, [3H]haloperidol displacement; details: read-out: IC50 (inhibition of [3H]-ligand binding) (converted)
T6 construct: Cell membrane fractions, prepared from tissue homogenates or cells; from tissue
T6 sequence (P61169 whole entry): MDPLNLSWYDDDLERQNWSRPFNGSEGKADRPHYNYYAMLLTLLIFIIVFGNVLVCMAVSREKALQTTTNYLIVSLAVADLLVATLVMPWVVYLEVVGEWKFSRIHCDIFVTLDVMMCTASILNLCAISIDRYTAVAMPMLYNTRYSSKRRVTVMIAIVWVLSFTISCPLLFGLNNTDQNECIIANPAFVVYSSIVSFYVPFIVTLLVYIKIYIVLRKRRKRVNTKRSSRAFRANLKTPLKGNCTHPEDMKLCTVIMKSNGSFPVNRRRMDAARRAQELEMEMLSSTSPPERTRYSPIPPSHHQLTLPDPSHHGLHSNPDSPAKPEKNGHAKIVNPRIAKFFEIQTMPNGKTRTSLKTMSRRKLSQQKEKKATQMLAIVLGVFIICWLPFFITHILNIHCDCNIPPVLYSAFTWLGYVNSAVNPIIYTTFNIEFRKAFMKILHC
Method: as §1, §2, §3, §4, §5, §6

[1] = system: serotonin-induced contraction of caudal artery of the rat; experiment: Antagonistic activity on the effect of serotonin on the caudal artery of the rat; type: cell-based; details: 5 min; rat caudal artery strips; serotonin 40 ng/ml; 5 minutes after adding the drug; read-out: ED50 (minimal concentration which reduces the amplitude of the contractions by at least 50% of its normal value)
Method: Antagonistic activity on the effect of serotonin on the caudal artery of the rat.
Caudal arteries from the fasted male rats (210-235 g) were used in the test. Two helical strips having a length of 5-6 cm and a width of 2 mm were obtained from each artery and mounted vertically in a 100 ml organ bath containing an oxygenated Krebs-Henseleit solution. Submaximal contractions of the arterial strips were produced by adding single doses of serotonin (40 ng/ml) to the organ bath for 2 minutes with each time an interval of 10 minutes. The amplitude of the contractions was measured before and 5 minutes after adding the drug. After washing out, the agonist was added again three times in order to see whether the contraction was restored and normalized. […] The ED50 -values are the minimal concentrations of the concerned drugs which reduce the amplitude of the contractions by at least 50% of its normal value.

Question: Which results are given for COc1cc(N)ccc1C(=O)NC1(C)CCN(CCCOc2ccc(F)cc2)CC1 [Compound 5, 4-amino-N-[1-[3-(4-fluorophenoxy)propyl]-4-methyl-4-piperidinyl]-2-methoxybenzamide]?
Answer: IC50 (5HT2 serotonin receptor): 0.178 nM; IC50 (5HT1A serotonin receptor): 2240 nM; IC50 (5HT1B serotonin receptor): > 10 µM; IC50 (5HT3 serotonin receptor): > 10 µM; IC50 (histamine-H1 receptor): 3.72 µM; IC50 (dopamine-D2 receptor): 85.1 nM; IC50 [1]: 0.213 nM

Question: COc1cc(N)c(Br)cc1C(=O)NC1(C)CCN(CCCOc2ccc(F)cc2)CC1 [Compound 3, 4-amino-5-bromo-N-[1-[3-(4-fluorophenoxy)propyl]-4-methyl-4-piperidinyl]-2-methoxybenzamide] was tested. Which IC50 (5HT2 serotonin receptor) did it give?
Answer: 0.661 nM

Question: What about the IC50 (5HT1A serotonin receptor) of the same compound?
Answer: 407 nM

Question: What about the IC50 (5HT1B serotonin receptor) of the same compound?
Answer: 6.61 µM

Question: And the IC50 (5HT3 serotonin receptor)?
Answer: 1.44 µM

Question: And the IC50 (histamine-H1 receptor)?
Answer: 10 µM

Question: And the IC50 (dopamine-D2 receptor)?
Answer: 47.9 nM

Question: Which IC50 (5HT2 serotonin receptor) does the source give for COc1cc(N)c(Cl)cc1C(=O)NC1(C)CCN(CCCOc2ccc(F)cc2)CC1 [Compound 2, 4-amino-5-chloro-N-[1-[3-(4-fluorophenoxy)propyl]-4-methyl-4-piperidinyl]-2-methoxybenzamide] here?
Answer: 0.251 nM

Question: What about the IC50 (5HT1A serotonin receptor) of the same compound?
Answer: 661 nM

Question: What about the IC50 (5HT1B serotonin receptor) of the same compound?
Answer: 6.61 µM

Question: And the IC50 (5HT3 serotonin receptor)?
Answer: 1.7 µM

Question: And the IC50 (histamine-H1 receptor)?
Answer: 4.57 µM

Question: What about the IC50 (dopamine-D2 receptor) of the same compound?
Answer: 29.5 nM

Question: What about the IC50 [1] of the same compound?
Answer: 0.15 nM

Question: For COc1cc(N)c(I)cc1C(=O)NC1(C)CCN(CCCOc2ccc(F)cc2)CC1 [Compound 1, 4-amino-N-[1-[3-(4-fluorophenoxy)propyl]-4-methyl-4-piperidinyl]-5-iodo-2-methoxybenzamide], which IC50 (5HT2 serotonin receptor) is on record?
Answer: 0.603 nM

Question: What about the IC50 (5HT1A serotonin receptor) of the same compound?
Answer: 457 nM

Question: What about the IC50 (5HT1B serotonin receptor) of the same compound?
Answer: 8.91 µM

Question: And the IC50 (5HT3 serotonin receptor)?
Answer: 4.17 µM

Question: What about the IC50 (histamine-H1 receptor) of the same compound?
Answer: 6.46 µM

Question: And the IC50 (dopamine-D2 receptor)?
Answer: 27.5 nM

Question: What about the IC50 [1] of the same compound?
Answer: 0.27 nM

Question: COc1cc(N=[N+]=[N-])c(I)cc1C(=O)NC1(C)CCN(CCCOc2ccc(F)cc2)CC1 [Compound 7, 4-azido-N-[1-[3-(4-fluorophenoxy)propyl]-4-methyl-4-piperidinyl]-5-iodo-2-methoxybenzamude hemihydrate] was tested. Which IC50 (5HT2 serotonin receptor) did it give?
Answer: 7.41 nM

Question: What about the IC50 (5HT1A serotonin receptor) of the same compound?
Answer: 89.1 nM

Question: And the IC50 (5HT1B serotonin receptor)?
Answer: 3.24 µM

Question: And the IC50 (5HT3 serotonin receptor)?
Answer: 10 µM

Question: And the IC50 (histamine-H1 receptor)?
Answer: 7.94 µM

Question: And the IC50 (dopamine-D2 receptor)?
Answer: 66.1 nM

Question: COc1cc(N=[N+]=[N-])c(Br)cc1C(=O)NC1(C)CCN(CCCOc2ccc(F)cc2)CC1 [Compound 8, 4-azido-5-bromo-N-[1-[3-(4-fluorophenoxy)propyl]-4-methyl-4-piperidinyl]-2-methoxybenzamide] was tested. Which IC50 (5HT2 serotonin receptor) did it give?
Answer: 3.55 nM

Question: What about the IC50 (5HT1A serotonin receptor) of the same compound?
Answer: 219 nM

Question: What about the IC50 (5HT1B serotonin receptor) of the same compound?
Answer: 3.31 µM

Question: And the IC50 (5HT3 serotonin receptor)?
Answer: 8.32 µM

Question: And the IC50 (histamine-H1 receptor)?
Answer: 8.51 µM

Question: What about the IC50 (dopamine-D2 receptor) of the same compound?
Answer: 63.1 nM

Question: Which results are given for COc1cc(N)c(Cl)cc1C(=O)NC1(C)CCN(CCCOc2ccc(F)cc2Br)CC1 [Compound 4, 4-amino-N-[1-[3-(2-bromo-4-fluorophenoxy)propyl]-4-methyl-4-piperidinyl]-5-chloro-2-methoxybenzamide]?
Answer: IC50 (5HT2 serotonin receptor): 0.631 nM; IC50 (5HT1A serotonin receptor): 417 nM; IC50 (5HT1B serotonin receptor): 10 µM; IC50 (5HT3 serotonin receptor): 0.191 µM; IC50 (histamine-H1 receptor): 2.88 µM; IC50 (dopamine-D2 receptor): 22.9 nM; IC50 [1]: 0.12 nM
